Measurements published in US20240384350A1, “METHODS OF TREATING CANCER WITH KINASE INHIBITORS” (BOARD OF REGENTS, THE UNIVERSITY OF TEXAS SYSTEM, priority 2021, published 2024).

Experiments:
Experiment in all cases: Ba/F3 drug screening, Cell Titer Glo, IC50 Mut/WT
Type in all cases: cell-based
EGFR L718Q T790M = molecular target: T1, EGFR L718Q T790M (Homo sapiens, UniProt P00533, L718Q/T790M); settings: T790M-like-3R, 72 hours
T1 construct: expressed in transfected cells; host or cells: Ba/F3

EGFR E709K G719S = molecular target: T2, EGFR E709K G719S (Homo sapiens, UniProt P00533, E709K/G719S); settings: Ba/F3 cells, EGFR E709K G719S (PACC), Mut/WT
T2 construct: expressed in transfected cells; host or cells: Ba/F3

EGFR G719A L861Q = molecular target: T3, EGFR G719A L861Q (Homo sapiens, UniProt P00533, G719A/L861Q); settings: Ba/F3 cells, EGFR G719A L861Q (PACC), Mut/WT
T3 construct: expressed in transfected cells; host or cells: Ba/F3

EGFR S784F = molecular target: T4, EGFR S784F (Homo sapiens, UniProt P00533, S784F); settings: Classical-Like, 72 hours
T4 construct: expressed in transfected cells; host or cells: Ba/F3 cells, retroviral pBabe-Puro vector (vector made by GeneScript from EGFR WT)
Method: (§1) Data represent the ratio of the IC50 value for a given TKI for cells with a classical-like EGFR mutation to the IC50 value for cells with wildtype EGFR.
(§2) Ba/F3 cell generation, drug screening, and IC50 approximations. Ba/F3 cells were obtained as a gift from Dr. Gordon Mills (MD Anderson Cancer Center), and maintained in RPMI (Sigma) containing 10% FBS, 1% penicillin/streptomycin, and 10 ng/ml recombinant mIL-3 (R&D Biosystems). To establish stable Ba/F3 cell lines, Ba/F3 cells were transduced with retroviruses containing mutant EGFR plasmids for 12-24 hours.
(§3) After 48-72 hours of transduction, 2 μg/ml puromycin (Invitrogen) was added to Ba/F3 cell lines in complete RPMI. To select for EGFR positive cell lines, cells were stained with PE-EGFR (Biolegend) and sorted by FACS. After sorting, EGFR positive cells were maintained in RPMI containing 10% FBS, 1% penicillin/streptomycin, and 1 ng/ml EGF to support cell viability. […] Shortly, cells were plated in 384-well plates (Greiner Bio-One) at 2000-3000 cells per well in technical triplicate. Seven different concentrations of TKIs or DMSO vehicle were added to reach a final volume of 40 μL per well. After 72 hours, 11 μL of Cell Titer Glo (Promega) was added to each well. Plates were incubated for a minimum of 10 minutes, and bioluminescence was determined using a FLUOstar OPTIMA plate reader (BMG LABTECH). Raw bioluminescence values were normalized to DMSO control treated cells, and values were plotted in GraphPad Prism. […] Drug screens were performed in technical triplicate on each plate and either duplicate or triplicate biological replicates.

EGFR L747S = molecular target: T5, EGFR L747S (Homo sapiens, UniProt P00533, L747S); settings: Ba/F3 cells, EGFR L747S (PACC), Mut/WT
T5 construct: expressed in transfected cells; host or cells: Ba/F3

EGFR V769L = molecular target: T6, EGFR V769L (Homo sapiens, UniProt P00533, V769L); settings: Ba/F3 cells, EGFR V769L (PACC), Mut/WT
T6 construct: expressed in transfected cells; host or cells: Ba/F3

EGFR Ex19del L718V = molecular target: T7, EGFR Ex19del L718V (Homo sapiens, UniProt P00533, DEL746-750/L718V); settings: Ba/F3 cells, EGFR Ex19del L718V (PACC), Mut/WT
T7 construct: expressed in transfected cells; host or cells: Ba/F3

EGFR L861Q = molecular target: T8, EGFR L861Q (Homo sapiens, UniProt P00533, L861Q); settings: Classical-Like, 72 hours
T8 construct: expressed in transfected cells; host or cells: Ba/F3 cells, retroviral pBabe-Puro vector

EGFR G719A T790M = molecular target: T9, EGFR G719A T790M (Homo sapiens, UniProt P00533, G719A/T790M); settings: T790M-like-3S, 72 hours
T9 construct: expressed in transfected cells; host or cells: Ba/F3
Method: (§4) Data represent the ratio of the IC50 value for a given TKI for cells with a T790M-like-3S EGFR mutation to the IC50 value for cells with wildtype EGFR.
as §2
(§5) After 48-72 hours of transduction, 2 μg/ml puromycin (Invitrogen) was added to Ba/F3 cell lines in complete RPMI. To select for EGFR positive cell lines, cells were stained with PE-EGFR (Biolegend) and sorted by FACS. After sorting, EGFR positive cells were maintained in RPMI containing 10% FBS, 1% penicillin/streptomycin, and 1 ng/ml EGF to support cell viability. Drug screening was performed as previously described^41,42. Shortly, cells were plated in 384-well plates (Greiner Bio-One) at 2000-3000 cells per well in technical triplicate. Seven different concentrations of TKIs or DMSO vehicle were added to reach a final volume of 40 μL per well. After 72 hours, 11 μL of Cell Titer Glo (Promega) was added to each well. Plates were incubated for a minimum of 10 minutes, and bioluminescence was determined using a FLUOstar OPTIMA plate reader (BMG LABTECH). Raw bioluminescence values were normalized to DMSO control treated cells, and values were plotted in GraphPad Prism. […] Drug screens were performed in technical triplicate on each plate and either duplicate or triplicate biological replicates.

EGFR A763insLQEA = molecular target: T10, EGFR A763insLQEA (Homo sapiens, UniProt P00533, INS763LQEA); settings: Classical-Like, 72 hours
T10 construct: expressed in transfected cells; host or cells: Ba/F3 cells, retroviral pBabe-Puro vector

EGFR V774M = molecular target: T11, EGFR V774M (Homo sapiens, UniProt P00533, V774M); settings: Ba/F3 cells, EGFR V774M (PACC), Mut/WT
T11 construct: host or cells: Ba/F3

EGFR L858R/T790M/C797S = molecular target: T12, EGFR L858R/T790M/C797S (Homo sapiens, UniProt P00533, C797S/L858R/T790M); settings: T790M-like-3R, 72 hours
T12 construct: expressed in transfected cells; host or cells: Ba/F3

EGFR L858R L718Q = molecular target: T13, EGFR L858R L718Q (Homo sapiens, UniProt P00533, L718Q/L858R); settings: Ba/F3 cells, EGFR L858R L718Q (PACC), Mut/WT
T13 construct: host or cells: Ba/F3
Method: (§6) Data represent the ratio of the IC50 value for a given TKI for cells with a PACC EGFR mutation to the IC50 value for cells with wildtype EGFR.
as §2, §5

EGFR L858R T790M L792H = molecular target: T14, EGFR L858R T790M L792H (Homo sapiens, UniProt P00533, L792H/L858R/T790M); settings: T790M-like-3S, 72 hours
T14 construct: expressed in transfected cells; host or cells: Ba/F3

EGFR Ex19del G724S = molecular target: T15, EGFR Ex19del G724S (Homo sapiens, UniProt P00533, DEL746-750/G724S); settings: Ba/F3 cells, EGFR Ex19del G724S (PACC), Mut/WT
T15 construct: expressed in transfected cells; host or cells: Ba/F3

EGFR A763insFQEA = molecular target: T16, EGFR A763insFQEA (Homo sapiens, UniProt P00533, INS763FQEA); settings: Classical-Like, 72 hours
T16 construct: expressed in transfected cells; host or cells: Ba/F3 cells, retroviral pBabe-Puro vector

EGFR S768I/V769L = molecular target: T17, EGFR S768I/V769L (Homo sapiens, UniProt P00533, S768I/V769L); settings: Ba/F3 cells, EGFR S768I/V769L (PACC), Mut/WT
T17 construct: host or cells: Ba/F3

EGFR L718Q = molecular target: T18, EGFR L718Q (Homo sapiens, UniProt P00533, L718Q); settings: Ba/F3 cells, EGFR L718Q (PACC), Mut/WT
T18 construct: expressed in transfected cells; host or cells: Ba/F3

EGFR L858R T790M V843I = molecular target: T19, EGFR L858R T790M V843I (Homo sapiens, UniProt P00533, L858R/T790M/V843I); settings: T790M-like-3S, 72 hours
T19 construct: expressed in transfected cells; host or cells: Ba/F3
Method: as §4, §2, §5

EGFR L718V = molecular target: T20, EGFR L718V (Homo sapiens, UniProt P00533, L718V); settings: Ba/F3 cells, EGFR L718V (PACC), Mut/WT
T20 construct: expressed in transfected cells; host or cells: Ba/F3

EGFR A767insASV = molecular target: T21, EGFR A767insASV (Homo sapiens, UniProt P00533, DUP767-769); settings: Ex20, 72 hours
T21 construct: expressed in transfected cells; host or cells: Ba/F3 cells, retroviral pBabe-Puro vector
Method: Data represent the ratio of the IC50 value for a given TKI for cells with an ex20ins EGFR mutation to the IC50 value for cells with wildtype EGFR.
as §2
(§7) After 48-72 hours of transduction, 2 μg/ml puromycin (Invitrogen) was added to Ba/F3 cell lines in complete RPMI. To select for EGFR positive cell lines, cells were stained with PE-EGFR (Biolegend) and sorted by FACS. After sorting, EGFR positive cells were maintained in RPMI containing 10% FBS, 1% penicillin/streptomycin, and 1 ng/ml EGF to support cell viability. Drug screening was performed as previously described^41,42. Shortly, cells were plated in 384-well plates (Greiner Bio-One) at 2000-3000 cells per well in technical triplicate. Seven different concentrations of TKIs or DMSO vehicle were added to reach a final volume of 40 μL per well. After 72 hours, 11 μL of Cell Titer Glo (Promega) was added to each well. Plates were incubated for a minimum of 10 minutes, and bioluminescence was determined using a FLUOstar OPTIMA plate reader (BMG LABTECH). Raw bioluminescence values were normalized to DMSO control treated cells, and values were plotted in GraphPad Prism. […] Drug screens were performed in technical triplicate on each plate and either duplicate or triplicate biological replicates. […] Statistical differences between groups were determined by ANOVA as described in the figure legends.

EGFR Ex19del L718Q = molecular target: T22, EGFR Ex19del L718Q (Homo sapiens, UniProt P00533, DEL746-750/L718Q); settings: Ba/F3 cells, EGFR Ex19del L718Q (PACC), Mut/WT
T22 construct: expressed in transfected cells; host or cells: Ba/F3
Method: as §6, §2, §5

EGFR S768dupSVD = molecular target: T23, EGFR S768dupSVD (Homo sapiens, UniProt P00533, DUP768-770); settings: Ex20, 72 hours
T23 construct: expressed in transfected cells; host or cells: Ba/F3 cells, retroviral pBabe-Puro vector

EGFR S811F = molecular target: T24, EGFR S811F (Homo sapiens, UniProt P00533, S811F); settings: Classical-Like, 72 hours
T24 construct: expressed in transfected cells; host or cells: Ba/F3 cells, retroviral pBabe-Puro vector (vector made by GeneScript from EGFR WT)
Method: as §1, §2, §3

EGFR S768I/T790M = molecular target: T25, EGFR S768I/T790M (Homo sapiens, UniProt P00533, S768I/T790M); settings: T790M-like-3S, 72 hours
T25 construct: expressed in transfected cells; host or cells: Ba/F3

EGFR E709A = molecular target: T26, EGFR E709A (Homo sapiens, UniProt P00533, E709A); settings: Ba/F3 cells, EGFR E709A (PACC), Mut/WT
T26 construct: expressed in transfected cells; host or cells: Ba/F3

EGFR L747P = molecular target: T27, EGFR L747P (Homo sapiens, UniProt P00533, L747P); settings: Ba/F3 cells, EGFR L747P (PACC), Mut/WT
T27 construct: expressed in transfected cells; host or cells: Ba/F3
Method: as §6, §2, §7

- ratio of IC50 for cells with mutant EGFR to IC50 for cells with wildtype EGFR (Mut/WT) (EGFR L718Q T790M): 43.09
- ratio of the IC50 value for cells with a PACC EGFR mutation to the IC50 value for cells with wildtype EGFR (EGFR E709K G719S): 2.046
- ratio of the IC50 value for cells with a PACC EGFR mutation to the IC50 value for cells with wildtype EGFR (EGFR G719A L861Q): 1.066
- ratio of IC50 for cells with mutant EGFR to IC50 for cells with wildtype EGFR (Mut/WT) (EGFR S784F): 0.01487
- ratio of the IC50 value for cells with a PACC EGFR mutation to the IC50 value for cells with wildtype EGFR (EGFR L747S): 2.299
- ratio of the IC50 value for cells with a PACC EGFR mutation to the IC50 value for cells with wildtype EGFR (EGFR V769L): 3.454
- ratio of the IC50 value for cells with a PACC EGFR mutation to the IC50 value for cells with wildtype EGFR (EGFR Ex19del L718V): 1.296
- ratio of IC50 for cells with mutant EGFR to IC50 for cells with wildtype EGFR (Mut/WT) (EGFR L861Q): 0.8467
- ratio of IC50 for cells with mutant EGFR to IC50 for cells with wildtype EGFR (Mut/WT) (EGFR G719A T790M): 0.4864
- ratio of IC50 for cells with mutant EGFR to IC50 for cells with wildtype EGFR (Mut/WT) (EGFR A763insLQEA): 0.03374
- ratio of the IC50 value for cells with a PACC EGFR mutation to the IC50 value for cells with wildtype EGFR (EGFR V774M): 1.453
- ratio of IC50 for cells with mutant EGFR to IC50 for cells with wildtype EGFR (Mut/WT) (EGFR L858R/T790M/C797S): 134.7
- ratio of the IC50 value for cells with a PACC EGFR mutation to the IC50 value for cells with wildtype EGFR (EGFR L858R L718Q): 2.996
- ratio of IC50 for cells with mutant EGFR to IC50 for cells with wildtype EGFR (Mut/WT) (EGFR L858R T790M L792H): 3.326
- ratio of the IC50 value for cells with a PACC EGFR mutation to the IC50 value for cells with wildtype EGFR (EGFR Ex19del G724S): 3.682
- ratio of IC50 for cells with mutant EGFR to IC50 for cells with wildtype EGFR (Mut/WT) (EGFR A763insFQEA): 0.473
- ratio of the IC50 value for cells with a PACC EGFR mutation to the IC50 value for cells with wildtype EGFR (EGFR S768I/V769L): 0.04994
- ratio of the IC50 value for cells with a PACC EGFR mutation to the IC50 value for cells with wildtype EGFR (EGFR L718Q): 16.38
- ratio of IC50 for cells with mutant EGFR to IC50 for cells with wildtype EGFR (Mut/WT) (EGFR L858R T790M V843I): 1.649
- ratio of the IC50 value for cells with a PACC EGFR mutation to the IC50 value for cells with wildtype EGFR (EGFR L718V): 39.29
- ratio of IC50 for cells with mutant EGFR to IC50 for cells with wildtype EGFR (Mut/WT) (EGFR A767insASV): 1.553
- ratio of the IC50 value for cells with a PACC EGFR mutation to the IC50 value for cells with wildtype EGFR (EGFR Ex19del L718Q): 1.286
- ratio of IC50 for cells with mutant EGFR to IC50 for cells with wildtype EGFR (Mut/WT) (EGFR S768dupSVD): 0.2515
- ratio of IC50 for cells with mutant EGFR to IC50 for cells with wildtype EGFR (Mut/WT) (EGFR S811F): 0.003195
- ratio of IC50 for cells with mutant EGFR to IC50 for cells with wildtype EGFR (Mut/WT) (EGFR S768I/T790M): 10.82
- ratio of the IC50 value for cells with a PACC EGFR mutation to the IC50 value for cells with wildtype EGFR (EGFR E709A): 1.583
- ratio of the IC50 value for cells with a PACC EGFR mutation to the IC50 value for cells with wildtype EGFR (EGFR L747P): 5.991
SMILES: C=CC(=O)Nc1cc(Nc2ncc(C(=O)OC(C)C)c(-c3cn(C)c4ccccc34)n2)c(OC)cc1N(C)CCN(C)C [TAK-788 (mobocertinib), mobocertinib]
